PubChem BioAssay (NCI)
Values joined by “and” are separate entries in the source; they are usually repeats but may differ in a detail not shown here. Identical values can stand only once.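 Briefly, cells in 96-well plates were exposed to five compound concentrations for 48 h, and endpoints were estimated by linear interpolation. GI50 marks 50% less growth. Definition used: TGI = concentration required for complete inhibition of growth.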

Columns and labels:
Test in all cases: DTP human tumour cell line panel, 48 h
NCI-H23 lung = test system: NCI-H23 lung
SK-OV-3 ovarian = test system: SK-OV-3 ovarian
HCT-116 colon = test system: HCT-116 colon
SF-295 CNS = test system: SF-295 CNS
NCI-H522 lung = test system: NCI-H522 lung
U251 CNS = test system: U251 CNS
SF-539 CNS = test system: SF-539 CNS
TK-10 renal = test system: TK-10 renal
SNB-75 CNS = test system: SNB-75 CNS
SW-620 colon = test system: SW-620 colon

C/C(CC(=O)Nc1ccc(Cl)c(Cl)c1)=N/NC(=O)C[n+]1ccccc1
TGI (NCI-H23 lung): > 100 µM
TGI (SK-OV-3 ovarian): > 100 µM
TGI (HCT-116 colon): > 100 µM
TGI (SF-295 CNS): > 100 µM
TGI (NCI-H522 lung): > 100 µM
TGI (U251 CNS): > 100 µM
TGI (SF-539 CNS): > 100 µM
TGI (TK-10 renal): > 100 µM

COc1ccc(C(=O)OCC2OC(n3cnc4c(=S)nc[nH]c43)C(OC(=O)c3ccc(OC)cc3)C2OC(=O)c2ccc(OC)cc2)cc1 (centres undefined)
TGI (NCI-H23 lung): > 100 µM
TGI (HCT-116 colon): > 100 µM
TGI (SNB-75 CNS): 77 µM
TGI (SF-295 CNS): > 100 µM
TGI (NCI-H522 lung): 54.5 µM
TGI (U251 CNS): > 100 µM
TGI (SF-539 CNS): > 100 µM
TGI (SW-620 colon): > 100 µM
TGI (TK-10 renal): > 100 µM

O=C(CN1CCN(c2ncnc3ccccc23)CC1)Nc1ccc(Cl)cc1C(=O)c1ccccc1Cl
GI50 (NCI-H23 lung): 1.18 µM
TGI (NCI-H23 lung): 3.87 µM
GI50 (SK-OV-3 ovarian): 3.5 µM
TGI (SK-OV-3 ovarian): 36.6 µM
GI50 (HCT-116 colon): 0.417 µM
TGI (HCT-116 colon): 11 µM
GI50 (SNB-75 CNS): 0.434 µM
TGI (SNB-75 CNS): 1.48 µM
GI50 (SF-295 CNS): 1.11 µM
TGI (SF-295 CNS): 6.07 µM
GI50 (NCI-H522 lung): 0.258 µM
TGI (NCI-H522 lung): 1.55 µM
GI50 (SF-539 CNS): 0.383 µM
TGI (SF-539 CNS): 1.3 µM
GI50 (SW-620 colon): 0.662 µM
TGI (SW-620 colon): 7.54 µM
GI50 (TK-10 renal): 0.501 µM
TGI (TK-10 renal): 4.44 µM

Cc1nc(Cl)nc(Cl)c1C
TGI (NCI-H23 lung): > 100 µM
TGI (SK-OV-3 ovarian): > 100 µM
TGI (SNB-75 CNS): > 100 µM
TGI (SF-295 CNS): > 100 µM
TGI (NCI-H522 lung): > 100 µM
TGI (U251 CNS): > 100 µM
TGI (SF-539 CNS): > 100 µM
TGI (SW-620 colon): > 100 µM
TGI (TK-10 renal): > 100 µM

COc1ccc(C[C@@H]2Cc3cc(OC)c(OC)cc3CN2C)cc1
TGI (NCI-H23 lung): > 100 µM
TGI (SNB-75 CNS): > 100 µM
TGI (SF-295 CNS): > 100 µM
TGI (NCI-H522 lung): > 100 µM
TGI (U251 CNS): > 100 µM
TGI (SW-620 colon): > 100 µM
TGI (TK-10 renal): > 100 µM

CC1(C)COC(C23C4C5C2C2C3C4C52I)=N1 (centres undefined)
TGI (NCI-H23 lung): > 100 µM
TGI (SK-OV-3 ovarian): > 100 µM
TGI (SF-295 CNS): > 100 µM
TGI (U251 CNS): > 100 µM
TGI (SF-539 CNS): > 100 µM
TGI (SW-620 colon): > 100 µM
TGI (TK-10 renal): > 100 µM

CCOC(C)C(/C=N/NC(N)=S)=NNC(N)=S (centres undefined)
TGI (NCI-H23 lung): > 100 µM
TGI (SK-OV-3 ovarian): > 100 µM
TGI (SNB-75 CNS): > 89.4 µM
TGI (SF-295 CNS): > 100 µM
TGI (NCI-H522 lung): > 100 µM
TGI (U251 CNS): > 100 µM
TGI (SF-539 CNS): > 100 µM
TGI (SW-620 colon): > 100 µM
TGI (TK-10 renal): > 100 µM

O=S1c2ccccc2N=C(c2ccc3ccccc3c2)CC1C1=CC=CCC1 (centres undefined)
TGI (NCI-H23 lung): 30.6 µM
TGI (SK-OV-3 ovarian): 50.4 µM
TGI (SNB-75 CNS): 50.6 µM
TGI (SF-295 CNS): 39.6 µM
TGI (NCI-H522 lung): 33.2 µM
TGI (SF-539 CNS): 45.3 µM
TGI (SW-620 colon): 36.7 µM
TGI (TK-10 renal): 51.7 µM

COC(=O)/C=C1/CCC2[C@@H](C(=O)CC3[C@]2(C)CCC[C@@]3(C)C(=O)OC)C1C (some centres undefined)
TGI (NCI-H23 lung): 31.6 µM
TGI (SK-OV-3 ovarian): 51.6 µM
TGI (HCT-116 colon): 19.1 µM
TGI (SF-295 CNS): 33.1 µM
TGI (NCI-H522 lung): 19.7 µM
TGI (U251 CNS): 29.5 µM
TGI (SF-539 CNS): 28.5 µM
TGI (SW-620 colon): 22.5 µM
TGI (TK-10 renal): 36.1 µM

CC1=C(C(=O)Nc2ccc(F)c(Cl)c2)C(c2ccccc2Cl)NC(=S)N1 (centres undefined)
GI50 (NCI-H23 lung): > 50 µM
TGI (NCI-H23 lung): > 50 µM
GI50 (SK-OV-3 ovarian): > 50 µM
TGI (SK-OV-3 ovarian): > 50 µM
GI50 (HCT-116 colon): 22.4 µM
TGI (HCT-116 colon): > 50 µM
GI50 (SF-295 CNS): 39.8 µM
TGI (SF-295 CNS): > 50 µM
GI50 (NCI-H522 lung): 35.7 µM
TGI (NCI-H522 lung): > 50 µM
GI50 (U251 CNS): 25.6 µM
TGI (U251 CNS): > 50 µM
GI50 (SF-539 CNS): > 50 µM
TGI (SF-539 CNS): > 50 µM
GI50 (SW-620 colon): > 50 µM
TGI (SW-620 colon): > 50 µM
GI50 (TK-10 renal): 48.8 µM
TGI (TK-10 renal): > 50 µM

CC1CC2(C)ON=C(c3ccccc3)N2c2ccccc2S1 (centres undefined)
GI50 (NCI-H23 lung): 28.1 µM
TGI (NCI-H23 lung): 97.5 µM
GI50 (SK-OV-3 ovarian): 9.55 µM
TGI (SK-OV-3 ovarian): 91.9 µM
GI50 (HCT-116 colon): 21.4 µM
TGI (HCT-116 colon): 49.6 µM
GI50 (SNB-75 CNS): 41.8 µM
GI50 (SF-295 CNS): 28.9 µM
TGI (SF-295 CNS): 79.1 µM
GI50 (NCI-H522 lung): 27.5 µM
TGI (NCI-H522 lung): 65.5 µM
GI50 (U251 CNS): 34.9 µM
GI50 (SF-539 CNS): 22.4 µM
TGI (SF-539 CNS): 51.6 µM
GI50 (SW-620 colon): 39.3 µM

CN(C)CCNC(=O)c1cc2ccccc2c2nc3ccccc3nc12
TGI (NCI-H23 lung): 2.69 µM
TGI (SK-OV-3 ovarian): > 31.6 µM
TGI (HCT-116 colon): 1.87 µM
TGI (SNB-75 CNS): 4.26 µM
TGI (NCI-H522 lung): > 100 µM
TGI (U251 CNS): 4.92 µM
TGI (SF-539 CNS): 1.55 µM
TGI (TK-10 renal): 7.17 µM

CCCCCCCCCCCCCC(=O)O[C@H]1CC[C@H](NC(=O)[C@H](OC)[C@H](O)[C@@H](O)[C@H](O)/C=C/C(C)C)C(=O)NC1
TGI (NCI-H23 lung): 4.77 µM and 0.5 µM
TGI (SK-OV-3 ovarian): 51.2 µM and > 100 µM
TGI (HCT-116 colon): 1.06 µM
TGI (SNB-75 CNS): 38.8 µM
TGI (U251 CNS): 18.6 µM and 11 µM
TGI (SF-539 CNS): 22 µM and 17.6 µM
TGI (SW-620 colon): 11.2 µM and 12.8 µM

Cn1ccnc1C(=O)/C=C/c1ccc(C(=O)Nc2ccc(Cl)cc2)cc1
GI50 (NCI-H23 lung): 1.25 µM
TGI (NCI-H23 lung): 7.62 µM
GI50 (SK-OV-3 ovarian): 1.87 µM
TGI (SK-OV-3 ovarian): > 33.3 µM
GI50 (HCT-116 colon): 0.514 µM
TGI (HCT-116 colon): 1.08 µM
GI50 (SNB-75 CNS): 0.615 µM
TGI (SNB-75 CNS): > 33.3 µM
GI50 (SF-295 CNS): 1.46 µM
TGI (SF-295 CNS): 6.11 µM
GI50 (NCI-H522 lung): 1.81 µM
TGI (NCI-H522 lung): 14 µM
GI50 (SF-539 CNS): 0.626 µM
TGI (SF-539 CNS): 1.42 µM
GI50 (TK-10 renal): 0.973 µM
TGI (TK-10 renal): 17.2 µM

COc1cc2nc(-c3cnc(N(C)C)nc3)nc(NC3CCN(Cc4ccccc4)CC3)c2cc1OC
GI50 (NCI-H23 lung): 1.69 µM
TGI (NCI-H23 lung): 4.11 µM
GI50 (SK-OV-3 ovarian): 1.7 µM
TGI (SK-OV-3 ovarian): 3.08 µM
GI50 (HCT-116 colon): 0.316 µM
TGI (HCT-116 colon): 1.32 µM
GI50 (SNB-75 CNS): 1.43 µM
TGI (SNB-75 CNS): 2.86 µM
GI50 (SF-295 CNS): 1.54 µM
TGI (SF-295 CNS): 2.97 µM
GI50 (U251 CNS): 0.222 µM
TGI (U251 CNS): 0.573 µM
GI50 (SF-539 CNS): 1.72 µM
TGI (SF-539 CNS): 3.25 µM
GI50 (SW-620 colon): 0.442 µM
TGI (SW-620 colon): 2 µM
GI50 (TK-10 renal): 1.63 µM
TGI (TK-10 renal): 3.08 µM

CS(=O)(=O)NNS(=O)(=O)c1cccc([N+](=O)[O-])c1
TGI (NCI-H23 lung): > 100 µM
TGI (HCT-116 colon): > 100 µM
TGI (SNB-75 CNS): > 100 µM
TGI (SF-295 CNS): > 100 µM
TGI (NCI-H522 lung): > 100 µM
TGI (U251 CNS): > 100 µM
TGI (SF-539 CNS): > 100 µM
TGI (SW-620 colon): > 100 µM
TGI (TK-10 renal): > 100 µM

CC(=O)N1N=C2/C(=C/c3ccccc3)CC(C)CC2C1c1ccccc1 (centres undefined)
GI50 (NCI-H23 lung): 14.4 µM
TGI (NCI-H23 lung): 28 µM
GI50 (SK-OV-3 ovarian): 17.1 µM
TGI (SK-OV-3 ovarian): 40.3 µM
GI50 (SNB-75 CNS): 15.6 µM
TGI (SNB-75 CNS): 30.9 µM
GI50 (SF-295 CNS): 15.9 µM
TGI (SF-295 CNS): 35.1 µM
GI50 (NCI-H522 lung): 13.8 µM
TGI (NCI-H522 lung): 31.7 µM
GI50 (U251 CNS): 11.7 µM
TGI (U251 CNS): 25.4 µM
GI50 (SF-539 CNS): 17.4 µM
TGI (SF-539 CNS): 32.7 µM
GI50 (SW-620 colon): 15.2 µM
TGI (SW-620 colon): 33.2 µM
GI50 (TK-10 renal): 19.7 µM
TGI (TK-10 renal): 44.9 µM

Cc1ccc(NC(=O)CCC(CC(=O)C(C)(C)C)=NNC(=O)C(=O)NN)cc1C
TGI (NCI-H23 lung): > 100 µM
TGI (SK-OV-3 ovarian): > 100 µM
TGI (SNB-75 CNS): > 100 µM
TGI (SF-295 CNS): > 100 µM
TGI (NCI-H522 lung): > 100 µM
TGI (SF-539 CNS): > 100 µM
TGI (SW-620 colon): > 100 µM
TGI (TK-10 renal): > 100 µM

O=c1c2cccc(Cl)c2sc2c(NCCCNCCO)nc3ccccc3c12
GI50 (NCI-H23 lung): 3.62 µM
TGI (NCI-H23 lung): 16.5 µM
GI50 (HCT-116 colon): 1.57 µM
TGI (HCT-116 colon): 3.13 µM
GI50 (SNB-75 CNS): 7.69 µM
TGI (SNB-75 CNS): 22 µM
GI50 (SF-295 CNS): 6.29 µM
TGI (SF-295 CNS): 20.2 µM
GI50 (NCI-H522 lung): 1.99 µM
TGI (NCI-H522 lung): 4.42 µM
GI50 (U251 CNS): 1.84 µM
TGI (U251 CNS): 4.13 µM
GI50 (SF-539 CNS): 1.67 µM
TGI (SF-539 CNS): 3.32 µM
GI50 (SW-620 colon): 1.41 µM
TGI (SW-620 colon): 2.95 µM
GI50 (TK-10 renal): 3.07 µM
TGI (TK-10 renal): 7.69 µM
